Assay results: paper PMC11219871, “Epigenetic-based differentiation therapy for Acute Myeloid Leukemia” (Nature Communications, 2024)

Columns and labels:
Test in all cases: Epigenetic panel (BPS Bioscience)
Format in all cases: biochemical
[1] = target: T1, DOT1L (Homo sapiens, UniProt Q8TEK3)
T1 construct: purchased BPS Bioscience; Eurofins (HDAC4, 5, 7-11)
Source text: (§1) The selectivity of CM-444 and CM-1758 against other epigenetic targets, including histone demethylase (JMJD2A, JMJD2B, JMJD2C, JMJD2D, JMJD2E, JMJD3, JMJD1A, LSD1, Jarid1A, Jarid1B, Jarid1C, FBXL10, FBXL11, JHDM1D, JMJD1B, PHF8, LSD2 and UTX); histone acetyltransferases (GCN5, P300); histone methyltransferases (G9a, GLP, MLL1, SET7/9, SUV39H1, SUV39H2, PRMT1, PRMT3, PRMT4, PRMT5, PRMT6, PRMT8, PRMT9, NSD1, NSD2, EZH1, EZH2, SETDB1, SETD2, SET8, SUV4-20H1, SMYD2, SMYD3, DOT1L, EZH2 (A677G), EZH2 (A677G), EZH2 (A738T), EZH2 (Y641S), EZH2 (P132S), EZH2 (Y641C), EZH2 (Y641F), EZH2 (Y641H), EZH2 (Y641N)); bromodomains (ATAD2B, ATAD2A, BRD1, BRD9, BPTF/FALZ, CeCR2, BRPF3, BRD3 (BD1 + BD2), BAZ2B, WDR9, TAF1 (BD2), TAF1L (BD2), TAF1L (BD1 + BD2), BRD2 (BD1), BRD2 (BD2), BRD2 (BD1 + BD2), BRD3 (BD1), BRD3 (BD2), BRD4 (BD1), BRD4 (BD2), BRD4 (BD1 + BD2), BRDT (BD1), BRDT (BD1 + BD2), CREBBP, SMARCA2A, SMARCA4/BRG1); DNA methyltranferases (DNMT1, DNMT3A/3L and DNMT3B/3L), and sirtuin histone deacetylases (SIRT1, SIRT2, SIRT3, SIRT5 and SIRT6), were determined by BPS Bioscience (http://www.bpsbioscience.com/index.ph). Binding experiments were performed in duplicate at a concentration of 10 μM.

[2] = target: T2, EZH2 (Y641C) (Homo sapiens, UniProt Q15910, Y641C)
T2 construct: purchased BPS Bioscience; Eurofins (HDAC4, 5, 7-11)
Source text: as §1

[3] = target: T3, EZH2 (Y641N) (Homo sapiens, UniProt Q15910, Y641N)
T3 construct: purchased BPS Bioscience; Eurofins (HDAC4, 5, 7-11)
Source text: as §1

[4] = target: T4, EZH2 (Y641S) (Homo sapiens, UniProt Q15910, Y641S)
T4 construct: purchased BPS Bioscience; Eurofins (HDAC4, 5, 7-11)
Source text: as §1

[5] = target: T5, GCN5 (Homo sapiens, UniProt Q92830); settings: read-out: % of inhibition
T5 construct: purchased BPS Bioscience; Eurofins (HDAC4, 5, 7-11)
Source text: as §1

[6] = target: T6, JMJD2A (Homo sapiens, UniProt O75164)
T6 construct: purchased BPS Bioscience; Eurofins (HDAC4, 5, 7-11)
Source text: as §1

[7] = target: T7, JMJD2C (Homo sapiens, UniProt Q9H3R0)
T7 construct: purchased BPS Bioscience; Eurofins (HDAC4, 5, 7-11)
Source text: as §1

[8] = target: T8, Jarid1C (Homo sapiens, UniProt P41229)
T8 construct: purchased BPS Bioscience; Eurofins (HDAC4, 5, 7-11)
Source text: as §1

[9] = target: T9, NSD2 (Homo sapiens, UniProt O96028)
T9 construct: purchased BPS Bioscience; Eurofins (HDAC4, 5, 7-11)
Source text: as §1

[10] = target: T10, P300 (Homo sapiens, UniProt Q09472)
T10 construct: purchased BPS Bioscience; Eurofins (HDAC4, 5, 7-11)
Source text: as §1

[11] = target: T11, PRMT9 (Homo sapiens, UniProt Q6P2P2); settings: for inhibition at 10 µM: read-out: % of inhibition
T11 sequence (Q6P2P2 1-845): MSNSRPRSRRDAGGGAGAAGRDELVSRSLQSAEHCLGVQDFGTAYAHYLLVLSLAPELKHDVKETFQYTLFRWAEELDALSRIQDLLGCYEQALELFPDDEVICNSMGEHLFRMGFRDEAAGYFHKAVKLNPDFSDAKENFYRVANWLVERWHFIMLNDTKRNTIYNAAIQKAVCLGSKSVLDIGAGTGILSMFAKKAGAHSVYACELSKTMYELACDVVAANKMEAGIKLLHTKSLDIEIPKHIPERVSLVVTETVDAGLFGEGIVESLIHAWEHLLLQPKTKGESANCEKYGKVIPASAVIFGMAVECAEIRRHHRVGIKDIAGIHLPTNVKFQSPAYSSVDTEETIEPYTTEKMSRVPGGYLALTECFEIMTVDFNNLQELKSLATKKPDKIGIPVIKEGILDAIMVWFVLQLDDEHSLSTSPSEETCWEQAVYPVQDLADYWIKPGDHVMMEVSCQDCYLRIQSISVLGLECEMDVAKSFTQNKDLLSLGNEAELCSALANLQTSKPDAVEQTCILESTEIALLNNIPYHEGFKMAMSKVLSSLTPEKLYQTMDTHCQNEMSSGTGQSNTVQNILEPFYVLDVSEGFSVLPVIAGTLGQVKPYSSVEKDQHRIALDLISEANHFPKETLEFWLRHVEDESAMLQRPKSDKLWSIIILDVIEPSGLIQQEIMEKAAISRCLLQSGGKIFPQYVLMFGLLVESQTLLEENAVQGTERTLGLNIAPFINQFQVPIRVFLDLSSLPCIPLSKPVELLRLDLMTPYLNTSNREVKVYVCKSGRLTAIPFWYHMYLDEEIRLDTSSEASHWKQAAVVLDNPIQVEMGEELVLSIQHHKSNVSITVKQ
Source text: as §1

[12] = target: T12, SETD2 (Homo sapiens, UniProt Q9BYW2)
T12 construct: purchased BPS Bioscience; Eurofins (HDAC4, 5, 7-11)
Source text: as §1

[13] = target: T13, SIRT5 (Homo sapiens, UniProt Q9NXA8)
T13 construct: purchased BPS Bioscience; Eurofins (HDAC4, 5, 7-11)
Source text: as §1

[14] = target: T14, SIRT6 (Homo sapiens, UniProt Q8N6T7)
T14 construct: purchased BPS Bioscience; Eurofins (HDAC4, 5, 7-11)
Source text: as §1

[15] = target: T15, SMYD2 (Homo sapiens, UniProt Q9NRG4)
T15 construct: purchased BPS Bioscience; Eurofins (HDAC4, 5, 7-11)
Source text: as §1

T6 sequence (O75164 whole entry): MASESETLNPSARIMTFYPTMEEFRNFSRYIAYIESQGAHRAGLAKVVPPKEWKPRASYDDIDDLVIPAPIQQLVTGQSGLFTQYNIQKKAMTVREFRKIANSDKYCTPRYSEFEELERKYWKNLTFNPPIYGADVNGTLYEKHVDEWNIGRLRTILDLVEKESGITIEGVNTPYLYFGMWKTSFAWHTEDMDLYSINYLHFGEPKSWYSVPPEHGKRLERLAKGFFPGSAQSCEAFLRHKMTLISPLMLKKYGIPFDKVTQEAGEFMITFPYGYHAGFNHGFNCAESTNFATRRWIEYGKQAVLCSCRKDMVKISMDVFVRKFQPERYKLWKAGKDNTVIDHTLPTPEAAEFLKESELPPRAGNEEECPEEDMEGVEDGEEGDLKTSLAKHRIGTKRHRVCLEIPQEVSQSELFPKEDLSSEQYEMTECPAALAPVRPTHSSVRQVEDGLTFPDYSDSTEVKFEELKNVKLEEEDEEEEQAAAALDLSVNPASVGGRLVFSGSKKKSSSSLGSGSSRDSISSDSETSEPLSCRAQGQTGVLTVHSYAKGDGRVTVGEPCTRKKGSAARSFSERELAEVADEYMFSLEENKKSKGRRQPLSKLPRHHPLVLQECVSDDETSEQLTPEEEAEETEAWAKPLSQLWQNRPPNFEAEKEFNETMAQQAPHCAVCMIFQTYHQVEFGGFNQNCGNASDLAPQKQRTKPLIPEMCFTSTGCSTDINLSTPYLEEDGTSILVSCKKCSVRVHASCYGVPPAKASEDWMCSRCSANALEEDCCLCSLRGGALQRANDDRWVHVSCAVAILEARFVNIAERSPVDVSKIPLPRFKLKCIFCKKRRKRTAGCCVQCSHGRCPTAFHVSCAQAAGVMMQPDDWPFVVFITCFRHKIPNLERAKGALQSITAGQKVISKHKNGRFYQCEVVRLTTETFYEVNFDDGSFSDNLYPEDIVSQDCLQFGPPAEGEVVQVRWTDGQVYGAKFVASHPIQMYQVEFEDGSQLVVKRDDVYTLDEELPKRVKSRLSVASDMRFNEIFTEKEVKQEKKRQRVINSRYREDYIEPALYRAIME
T2 sequence (Q15910 whole entry Y641C): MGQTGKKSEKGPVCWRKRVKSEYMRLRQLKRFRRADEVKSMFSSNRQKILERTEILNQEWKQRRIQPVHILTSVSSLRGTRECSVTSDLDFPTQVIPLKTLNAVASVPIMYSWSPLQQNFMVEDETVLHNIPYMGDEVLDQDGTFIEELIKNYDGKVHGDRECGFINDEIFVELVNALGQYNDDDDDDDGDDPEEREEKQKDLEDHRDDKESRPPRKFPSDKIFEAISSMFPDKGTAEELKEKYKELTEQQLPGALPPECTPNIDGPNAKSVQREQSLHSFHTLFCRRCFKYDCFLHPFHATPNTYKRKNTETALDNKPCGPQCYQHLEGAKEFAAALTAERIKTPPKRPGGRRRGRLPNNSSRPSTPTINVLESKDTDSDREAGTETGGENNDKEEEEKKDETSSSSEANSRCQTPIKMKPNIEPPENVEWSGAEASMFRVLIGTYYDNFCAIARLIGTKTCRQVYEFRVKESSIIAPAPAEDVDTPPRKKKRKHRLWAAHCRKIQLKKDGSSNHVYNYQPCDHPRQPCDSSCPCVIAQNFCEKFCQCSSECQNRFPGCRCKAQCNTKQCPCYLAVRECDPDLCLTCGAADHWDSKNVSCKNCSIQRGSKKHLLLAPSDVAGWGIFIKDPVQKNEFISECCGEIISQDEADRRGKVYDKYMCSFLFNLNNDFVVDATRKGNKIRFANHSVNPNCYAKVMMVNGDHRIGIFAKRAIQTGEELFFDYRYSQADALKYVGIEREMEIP
T2 sequence (O75530 whole entry partner): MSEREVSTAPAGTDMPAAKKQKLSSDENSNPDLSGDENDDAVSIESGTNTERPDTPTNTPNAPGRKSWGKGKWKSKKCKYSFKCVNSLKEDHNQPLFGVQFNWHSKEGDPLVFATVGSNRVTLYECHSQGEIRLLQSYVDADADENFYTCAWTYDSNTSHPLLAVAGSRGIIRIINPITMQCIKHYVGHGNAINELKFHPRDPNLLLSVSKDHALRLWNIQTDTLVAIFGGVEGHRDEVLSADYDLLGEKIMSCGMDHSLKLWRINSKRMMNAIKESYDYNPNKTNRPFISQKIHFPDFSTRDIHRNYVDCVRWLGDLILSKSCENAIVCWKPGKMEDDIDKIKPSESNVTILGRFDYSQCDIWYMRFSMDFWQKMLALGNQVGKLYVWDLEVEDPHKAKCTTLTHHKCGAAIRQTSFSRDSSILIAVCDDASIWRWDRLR
T2 sequence (Q15022 whole entry partner): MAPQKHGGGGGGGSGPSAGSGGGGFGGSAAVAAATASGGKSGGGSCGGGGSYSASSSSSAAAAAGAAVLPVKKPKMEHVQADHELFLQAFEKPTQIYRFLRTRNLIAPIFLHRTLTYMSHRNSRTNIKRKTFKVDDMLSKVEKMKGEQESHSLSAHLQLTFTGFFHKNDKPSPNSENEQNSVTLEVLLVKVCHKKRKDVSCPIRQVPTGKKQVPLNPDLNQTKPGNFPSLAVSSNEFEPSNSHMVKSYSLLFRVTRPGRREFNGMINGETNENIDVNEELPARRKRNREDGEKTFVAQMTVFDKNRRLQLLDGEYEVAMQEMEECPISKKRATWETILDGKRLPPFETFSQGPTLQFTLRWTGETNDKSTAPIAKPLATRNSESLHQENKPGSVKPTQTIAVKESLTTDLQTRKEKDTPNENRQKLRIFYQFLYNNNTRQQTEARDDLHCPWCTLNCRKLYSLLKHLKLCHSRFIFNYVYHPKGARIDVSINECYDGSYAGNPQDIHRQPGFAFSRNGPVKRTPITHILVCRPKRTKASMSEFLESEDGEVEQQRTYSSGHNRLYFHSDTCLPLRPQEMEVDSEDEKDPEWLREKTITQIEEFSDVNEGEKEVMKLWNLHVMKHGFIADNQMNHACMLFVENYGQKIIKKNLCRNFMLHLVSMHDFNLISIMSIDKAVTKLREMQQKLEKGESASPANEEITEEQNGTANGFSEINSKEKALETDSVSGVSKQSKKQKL
T2 sequence (Q09028 whole entry partner): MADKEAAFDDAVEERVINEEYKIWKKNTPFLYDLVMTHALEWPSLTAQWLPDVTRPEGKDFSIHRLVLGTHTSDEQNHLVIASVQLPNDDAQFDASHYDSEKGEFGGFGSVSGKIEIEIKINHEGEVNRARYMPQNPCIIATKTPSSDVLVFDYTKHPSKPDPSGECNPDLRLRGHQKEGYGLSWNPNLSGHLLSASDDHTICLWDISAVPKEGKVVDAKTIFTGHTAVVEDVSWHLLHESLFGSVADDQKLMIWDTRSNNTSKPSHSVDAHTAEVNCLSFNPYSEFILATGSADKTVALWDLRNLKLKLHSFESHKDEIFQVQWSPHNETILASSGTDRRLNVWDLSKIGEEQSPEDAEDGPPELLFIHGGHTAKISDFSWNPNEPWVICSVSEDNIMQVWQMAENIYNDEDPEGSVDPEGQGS
T2 sequence (Q6ZN18 whole entry partner): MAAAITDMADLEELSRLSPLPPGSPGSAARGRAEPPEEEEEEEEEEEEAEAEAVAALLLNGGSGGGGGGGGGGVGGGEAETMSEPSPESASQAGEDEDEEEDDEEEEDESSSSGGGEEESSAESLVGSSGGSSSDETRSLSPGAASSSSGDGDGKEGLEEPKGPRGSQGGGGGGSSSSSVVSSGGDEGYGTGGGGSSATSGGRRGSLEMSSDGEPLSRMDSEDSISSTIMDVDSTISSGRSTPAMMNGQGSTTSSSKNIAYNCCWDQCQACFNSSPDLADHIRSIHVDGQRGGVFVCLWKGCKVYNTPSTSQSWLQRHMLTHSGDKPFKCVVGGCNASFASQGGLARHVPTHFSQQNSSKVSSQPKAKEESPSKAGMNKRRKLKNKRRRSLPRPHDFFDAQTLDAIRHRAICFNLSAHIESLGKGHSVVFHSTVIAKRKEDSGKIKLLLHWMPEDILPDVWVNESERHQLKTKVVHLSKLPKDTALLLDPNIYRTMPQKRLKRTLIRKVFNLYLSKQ
T7 sequence (Q9H3R0 whole entry): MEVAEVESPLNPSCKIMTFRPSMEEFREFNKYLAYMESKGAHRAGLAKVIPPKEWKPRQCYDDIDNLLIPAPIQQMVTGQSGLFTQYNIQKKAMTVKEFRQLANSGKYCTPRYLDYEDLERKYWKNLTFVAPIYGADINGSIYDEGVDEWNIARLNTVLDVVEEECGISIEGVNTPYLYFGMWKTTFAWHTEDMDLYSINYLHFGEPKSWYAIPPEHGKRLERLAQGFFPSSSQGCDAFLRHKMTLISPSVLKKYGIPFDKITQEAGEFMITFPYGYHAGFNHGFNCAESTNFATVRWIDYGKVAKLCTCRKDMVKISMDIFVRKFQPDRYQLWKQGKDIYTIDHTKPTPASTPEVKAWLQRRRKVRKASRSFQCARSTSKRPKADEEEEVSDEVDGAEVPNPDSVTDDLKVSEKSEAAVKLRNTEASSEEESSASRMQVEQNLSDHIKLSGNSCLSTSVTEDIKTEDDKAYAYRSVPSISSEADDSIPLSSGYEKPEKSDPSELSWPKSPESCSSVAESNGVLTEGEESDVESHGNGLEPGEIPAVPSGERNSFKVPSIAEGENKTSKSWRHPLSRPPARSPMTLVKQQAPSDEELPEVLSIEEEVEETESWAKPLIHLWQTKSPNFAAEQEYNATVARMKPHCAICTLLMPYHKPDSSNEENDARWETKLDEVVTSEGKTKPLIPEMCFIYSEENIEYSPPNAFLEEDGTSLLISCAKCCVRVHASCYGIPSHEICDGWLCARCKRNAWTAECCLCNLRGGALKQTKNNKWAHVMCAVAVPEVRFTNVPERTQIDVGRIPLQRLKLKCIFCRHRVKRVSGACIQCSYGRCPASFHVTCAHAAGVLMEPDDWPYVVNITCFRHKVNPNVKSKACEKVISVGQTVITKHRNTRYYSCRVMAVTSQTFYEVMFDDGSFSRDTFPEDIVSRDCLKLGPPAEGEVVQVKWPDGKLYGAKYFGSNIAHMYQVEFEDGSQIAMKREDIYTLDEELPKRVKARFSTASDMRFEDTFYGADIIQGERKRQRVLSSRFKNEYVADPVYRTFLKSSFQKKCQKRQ

For `COc1cc2nc(-c3cc(C)oc3C)cc(NCC3CCN(c4ncc(C(=O)NO)cn4)CC3)c2cc1OC` [CM-1758, 2-[4-[[[2-(2,5-dimethyl-3-furyl)-6,7-dimethoxy-4-quinolyl]amino]methyl] -1-piperidyl]pyrimidine-5-carbohydroxamic acid], the inhibition at 10 µM [1] was 0%, the inhibition at 10 µM [2] was 0% and the inhibition at 10 µM [3] was 0%. The inhibition at 10 µM [4] was 24%, the inhibition at 10 µM [5] was 12% and the inhibition at 10 µM [6] was 20%. The inhibition at 10 µM [7] was 9%, the inhibition at 10 µM [8] was 26% and the inhibition at 10 µM [9] was 16%. The inhibition at 10 µM [10] was 0%, the IC50 [11] was 22.7 µM and the inhibition at 10 µM [11] was 52%. The inhibition at 10 µM [12] was 11%, the inhibition at 10 µM [13] was 2% and the inhibition at 10 µM [14] was 4%. It also gave an inhibition at 10 µM [15] of 16%.
`COc1cc2nc(-c3ccc(C)o3)cc(NCC3CCN(c4ncc(C(=O)NO)cn4)CC3)c2cc1OC` [CM-444, 2-[4-[[[6,7-dimethoxy-2-(5-methyl-2-furyl)-4-quinolyl]amino]methyl]-1-piperidyl]pyrimidine-5-carbohydroxamic acid] showed an inhibition at 10 µM [1] of 0%, an inhibition at 10 µM [2] of 4% and an inhibition at 10 µM [3] of 2%. It also gave an inhibition at 10 µM [4] of 4%, an inhibition at 10 µM [5] of 31% and an inhibition at 10 µM [6] of 21%. The inhibition at 10 µM [7] was 4%, the inhibition at 10 µM [8] was 2% and the inhibition at 10 µM [9] was 35%. For the same compound, the inhibition at 10 µM [10] was 10%, the IC50 [11] was 19.2 µM and the inhibition at 10 µM [11] was 76%. The inhibition at 10 µM [12] was 0%, the inhibition at 10 µM [13] was 7% and the inhibition at 10 µM [14] was 15%. The inhibition at 10 µM [15] was 9%.
